In assay [1] the target is T1, rat MCH 1 receptor (rMCH1R) (Rattus norvegicus, UniProt P97639).
T1 construct: expressed in transfected cells; host or cells: HEK 293 (membrane preparation)
Kind of assay: Ligand binding assay (125I native-MCH), rMCH. Particulars: rMCH1R expressed in HEK 293, membranes, 0.2 nM 125I native-MCH. As for the experimental part: (§1) Human embryonic kidney cells (293 total) expressing either human, rat, or mouse MCH receptor were harvested from 150 mm culture dishes using PBS. Spinning at 1500 rpm for 2 minutes initially pelleted cells. The resulting pellet was then homogenized in 15 mL ice cold sucrose buffer (25 mM HEPES, 0.3 M sucrose, pH 7.4) with a motorized, glass fitted, Teflon® homogenizer. The homogenate was centrifuged at 48,000×g at 4° C. for 10 minutes, resuspended in 15 mL assay buffer (25 mM HEPES, 10 mM MgCl2, 0.2% BSA, 0.1 mg/mL STI, 0.1 mg/mL Pefabloc®, 1 μM Phosphoramidon, pH 7.4) with a Tissue-Tearor® (Biospec Products) and centrifuged again at 48,000×g for 10 minutes. The pellet was homogenized for a third time in 15 mL assay buffer using the Tissue-Tearor® and again centrifuged at 48,000×g for 10 minutes. The resulting pellet was resuspended in assay buffer at a wet weight concentration of 10-20 mg/mL.
(§2) Binding assays were determined as described below using mouse, rat or human MCH 1 receptors (mMCH1R, rMCH1R, and hMCH1R, respectively) expressed in HEK 293; IC50 values were calculated.
(§3) Binding assays were performed in 96-well U-bottom plates. Membranes (100 μg tissue) were incubated at 30° C. for 90 minutes in assay buffer with various peptides in the presence of 0.2 nM 125I native-MCH (Perkin-Elmer Life Sciences, Boston, Mass.) in 100 μL total volume. Non-specific binding was assessed in the presence of 1 μM cold native-MCH. The reaction was terminated by rapid filtration through Unfilter-96 GF/C glass fiber filter plates (FilterMate® 196 Harvester, Packard Instrument Co., Meriden, Conn.) pre-soaked in PBS/0.5% BSA, followed by three washes with 300 μL ice-cold water. Bound radioactivity was determined using a TopCount® microplate scintillation and luminescence counter (Packard Instrument Co., Meriden, Conn.). Nonlinear regression analyses of drug concentration curves were performed using GraphPad Prism® (GraphPad Software, Inc., San Diego, Calif.).

The target in assay [2] is T2, rat MCH1 receptor (Rattus norvegicus, UniProt P97639).
T2 construct: expressed in transfected cells
T2 sequence (P97639 whole entry): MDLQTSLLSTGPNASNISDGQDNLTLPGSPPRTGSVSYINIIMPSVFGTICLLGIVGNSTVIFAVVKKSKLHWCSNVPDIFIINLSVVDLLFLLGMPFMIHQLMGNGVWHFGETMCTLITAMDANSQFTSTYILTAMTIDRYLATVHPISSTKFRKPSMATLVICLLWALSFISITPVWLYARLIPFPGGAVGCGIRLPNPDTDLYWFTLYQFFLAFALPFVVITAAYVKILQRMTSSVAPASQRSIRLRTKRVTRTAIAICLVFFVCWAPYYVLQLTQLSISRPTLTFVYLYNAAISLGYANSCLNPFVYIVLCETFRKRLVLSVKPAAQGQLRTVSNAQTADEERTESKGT
Kind of assay: rMCH FLIPR calcium mobilization functional assay. Particulars: CHOK1-Gqi cells. Format: cell-based. As for the experimental part: Pharmacological analyses were conducted using either a HT-PS100 device (Axiom Biotechnologies, San Diego, Calif.), which provides high-resolution dose-response fluorometric measurements of [Ca^++]i mobilization, or using a FLIPR® device (Molecular Devices, Sunnyvale, Calif.).
Materials: Pharmacological analysis was conducted using a FLIPR® device (Molecular Devices, Sunnyvale, Calif.). CHOK1-Gqi cells were stably transfected with the rat MCH1 receptor and maintained under G418 antibiotic pressure. FLIPR® assay buffer consisted of phenol red-free DMEM+2.5 mM probenecid. MCH peptide (Amgen, Inc.) was reconstituted in assay buffer and served as the positive agonist control for all experiments. Test compounds were prepared as 10 mM stocks in 100% DMSO and diluted to a top end working concentration of 10 μM in 96 well black, flat bottom, collagen-I coated plates (Becton Dickinson, Bedford, Mass.).
Methods: CHOK1-Gqi cells stably expressing MCH1R were maintained in Dulbeco's modified Eagle's medium (GIBCO/Life Technologies, Rockville, Md.) supplemented with 2 mM glutamine and 10% dialyzed fetal bovine serum (HyClone, Logan, Utah) at 37° C., 5% CO2. Cells were harvested by 10′ treatment with Versene (GIBCO/Life Technologies) followed by trituration, washing twice with cold (4° C.) hybridoma medium (Serum/Protein free, with L-glutamine, sodium bicarbonate, MOPS buffer) (Sigma-Aldrich Corp, St. Louis, Mo.) and replated onto 96 well black, flat bottom, collagen-I coated plates to a density of 10,000 cells/well. The cells were then loaded with the fluorescent calcium indicator Fura-2 (Molecular Probes, Eugene, Oreg.) at 1.6 μM for 60′ at room temperature. The loaded cells were then washed twice with 90 μl/well of wash buffer (1×HBSS, 20 mM HEPES, 2.5 mM probenecid).
Receptor-stimulated intracellular calcium responses were detected using FLIPR® by monitoring increases in the Fura-2 fluorescence response.
Test compounds were screened for MCH1R activity in the FLIPR® for both agonist and antagonist action. Agonist mode challenges were conducted at a maximum gradient concentration of 1 μM. Antagonist activity was tested by 10 min pre-incubation of cells at a compound concentration of defined to be 300× the EC50 of MCH (typically 1 μM), with subsequent introduction of MCH at a concentration 5-fold of EC50 as determined in preliminary experiments.
Schild experiments were conducted on the FLIPR® for selected compounds by co-administering antagonist compounds together with MCH peptide. Several fixed concentrations of antagonist compounds were prepared in 10-fold increments, and presented to the cells in a gradient of increasing MCH concentration. Values for compound pA2 were calculated by linear regression of MCH EC50s as a function of antagonist concentration.
Background: Calcium flux is commonly read through the fluorescence of an indicator in the cells.

In assay [3] the target is T3, human MCH 1 receptor (hMCH1R) (Homo sapiens, UniProt Q99705).
T3 construct: expressed in transfected cells; host or cells: HEK 293 (membrane preparation)
T3 sequence (Q99705 whole entry): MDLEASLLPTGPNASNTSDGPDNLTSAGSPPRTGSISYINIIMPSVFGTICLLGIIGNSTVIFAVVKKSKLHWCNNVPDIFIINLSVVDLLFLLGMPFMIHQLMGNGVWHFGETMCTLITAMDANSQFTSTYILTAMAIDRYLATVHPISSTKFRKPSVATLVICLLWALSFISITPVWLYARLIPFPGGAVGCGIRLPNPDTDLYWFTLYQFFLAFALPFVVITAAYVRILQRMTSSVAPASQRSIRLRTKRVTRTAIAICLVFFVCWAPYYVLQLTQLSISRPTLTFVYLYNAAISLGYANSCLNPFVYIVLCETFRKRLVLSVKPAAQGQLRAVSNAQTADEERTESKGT
As to the kind of experiment: Ligand binding assay (125I native-MCH), hMCH. Particulars: hMCH1R expressed in HEK 293, membranes, 0.2 nM 125I native-MCH. As for the experimental part:
as §1, §2, §3

For assay [4], the target named is T4, human MCH receptor (Homo sapiens, UniProt Q99705).
T4 construct: expressed in transfected cells
T4 sequence (Q99705 whole entry): as above
As to the kind of experiment: hMCH FLIPR calcium mobilization functional assay. Format: cell-based.

T1 sequence (P97639 whole entry): as the sequence (P97639 whole entry) above

For `COc1cccc(NC(=O)Nc2cc(C(=O)NCCN3CCCC3)ccc2Oc2ccc(C)c(C)c2)c1` [Compound 40, 4-(3,4-dimethylphenoxy)-3-[3-(3-methoxyphenyl)ureido]-N-(2-pyrrolidin-1-yl-ethyl)benzamide], the IC50 (usually the concentration at which inhibition is half-maximal) in assay [1] (threshold 100 nM or less) was at most 0.1 µM; in assay [1] (threshold 100 μM or less), at most 100 µM; in assay [3] (threshold 100 nM or less) it was at most 0.1 µM; in assay [3] (threshold 100 μM or less), at most 100 µM. The Ki – broadly, a dissociation constant, usually derived from enzyme kinetics or from competition with a known ligand – was at most 0.1 µM in assay [2] (threshold 100 nM or less), at most 100 µM in assay [2] (threshold 100 μM or less), at most 0.1 µM in assay [4] (threshold 100 nM or less) and at most 100 µM in assay [4] (threshold 100 μM or less).
With `Cc1ccc(Oc2ccc(C(=O)NCCN3CCCC3)cc2NC(=O)Nc2cc(F)cc(F)c2)cc1C` [Compound 58, 3-[3-(3,5-difluorophenyl)ureido]-4-(3,4-dimethylphenoxy)-N-(2-pyrrolidin-1-yl-ethyl)benzamide], the IC50 is at most 0.1 µM in assay [1] (threshold 100 nM or less), at most 100 µM in assay [1] (threshold 100 μM or less), at most 0.1 µM in assay [3] (threshold 100 nM or less) and at most 100 µM in assay [3] (threshold 100 μM or less). The Ki in assay [2] (threshold 100 μM or less) and in assay [4] (threshold 100 μM or less) was at most 100 µM throughout.
On to `Cc1ccc(Oc2ccc(CNCCN3CCCC3)cc2NC(=O)Nc2cccc(F)c2)cc1C` [Compound 64, 1-{2-(3,4-dimethylphenoxy)-5-[(2-pyrrolidin-1-yl-ethylamino)-methyl]phenyl}-3-(3-fluorophenyl)urea], for which the IC50 in assay [1] (threshold 100 μM or less) and in assay [3] (threshold 100 μM or less) was at most 100 µM in each case. Moreover, the Ki in assay [2] (threshold 100 μM or less) and in assay [4] (threshold 100 μM or less) was at most 100 µM each time.
For `Cc1ccc(Oc2ccc(C(=O)NCCN3CCCC3)cc2NC(=O)Nc2ccccc2)cc1C` [Compound 1, 4-[(3,4-dimethylphenyl)oxy]-3-{[(phenylamino)carbonyl]amino}-N-(2-(1-pyrrolidinyl)ethyl)benzamide], the half-maximal inhibitory concentration (IC50) in assay [1] (threshold 100 nM or less) was at most 0.1 µM; in assay [1] (threshold 100 μM or less) it was at most 100 µM; in assay [3] (threshold 100 nM or less) it was at most 0.1 µM; in assay [3] (threshold 100 μM or less), at most 100 µM. Further, the Ki was at most 0.1 µM in assay [2] (threshold 100 nM or less), at most 100 µM in assay [2] (threshold 100 μM or less), at most 0.1 µM in assay [4] (threshold 100 nM or less) and at most 100 µM in assay [4] (threshold 100 μM or less).
For `Cc1ccc(Oc2ccc(C(=O)NCCN3CCCC3)cc2NC(=O)Nc2cccc3ccccc23)cc1C` [Compound 36, 4-(3,4-dimethylphenoxy)-3-(3-naphthalen-1-yl-ureido)-N-(2-pyrrolidin-1-yl-ethyl)benzamide], the IC50 in assay [1] (threshold 100 μM or less) was at most 100 µM; in assay [3] (threshold 100 nM or less), at most 0.1 µM; in assay [3] (threshold 100 μM or less), at most 100 µM. The Ki in assay [2] (threshold 100 μM or less) and in assay [4] (threshold 100 μM or less) was at most 100 µM each time.
`Cc1ccc(Oc2ccc(C(=O)NCCN3CCCC3)cc2NC(=O)Nc2cc(Cl)cc(Cl)c2)cc1C` [Compound 59, 3-[3-(3,5-dichlorophenyl)ureido]-4-(3,4-dimethylphenoxy)-N-(2-pyrrolidin-1-yl-ethyl)benzamide]: the IC50 in assay [1] (threshold 100 nM or less) is at most 0.1 µM; in assay [1] (threshold 100 μM or less), at most 100 µM; in assay [3] (threshold 100 nM or less), at most 0.1 µM; in assay [3] (threshold 100 μM or less) it was at most 100 µM. Besides, the Ki in assay [2] (threshold 100 μM or less) and in assay [4] (threshold 100 μM or less) was at most 100 µM throughout.
